{"source": "patent US20250101063A1", "about": "“POLYPEPTIDE COMPOUND AND USE THEREOF IN TREATMENT OF ENTERITIS” (Sichuan Gooddoctor Panxi Pharmaceutical Co., Ltd., priority 2022, published 2025)", "key": {"[1]": {"tested_on": "TNBS-induced model of acute inflammatory bowel disease (UC) in SD rat", "experiment": "TNBS-induced model of acute inflammatory bowel disease (UC) in SD rat", "format": "in vivo", "excerpt": "In this experiment, a rat model of ulcerative colitis was established by administering trinitrobenzene sulfonic acid (TNBS) to laboratory animal male SD rats for a single enema intervention. Acute colitis in rats induced by trinitrobenzene sulfonic acid (TNBS) is an immune response induced by cytokines secreted by Th1 type cells. […] This model is simple to establish and has good reproducibility. It is an experimental animal model widely used in evaluating drugs for the treatment of inflammatory bowel disease. […] During the experimental treatment period (D1-D14), the body weight and general clinical observation indicators (including but not limited to food intake, water intake, activity level and defecation, etc.) of the animals in each experimental group were dynamically collected. At the same time, based on the relevant scoring standards for the disease activity index of ulcerative colitis, the reactivity such as the weight loss degree, stool morphology and trait, and bloody stool of the animals in each experimental group after TNBS induction were scored, and the disease activity index (DAI) of ulcerative colitis was calculated, once a day for 14 consecutive days. At the end point of the experiment, colon tissues of animals in each experimental group were collected, and the length and weight of the colon were measured and then the non-autopsy images were collected. Then the colon was cut open along the intestinal wall longitudinally and autopsy images were collected. Based on the “Criteria for Scoring Gross Morphological Manifestations of the Colon”, the gross damage with respect to colon adhesions, colon ulcers and inflammation of animals in each experimental group was observed and scored. Ulcer images were collected under a stereomicroscope and the area of colon ulcer foci was calculated, followed by routine fixation."}, "[2]": {"tested_on": "zebrafish model of intestinal mucosal injury", "experiment": "Efficacy in relieving colitis: intestinal lumen area in TNBS-treated zebrafish", "format": "in vivo", "design": "key to Activity in relieving intestinal lumen dilatation: * p < 0.05; ** p < 0.01; *** p < 0.001; “−“ indicates absence of activity; “+” indicates some relief of intestinal lumen dilatation; “#” indicates that all the zebrafishes died in the experiment; “&” indicates that 13 zebrafishes died in the experiment", "details": "for Intestinal lumen area (pixels, mean ± SE): 2 days after TNBS, n = 10; for Activity in relieving intestinal lumen dilatation: 1000 μg/mL, significance vs model control group of the same batch", "protocol": "Experimental animals: Wild-type AB strain zebrafishes, bred by natural pair mating. Zebrafishes aged 3 days post fertilization (3 dpf). Zebrafishes were kept in fish farming water at 28° C. (water quality: 200 mg of instant sea salt in each 1L of reverse osmosis water, with the conductivity of 450-550 μS/cm; pH of 6.5-8.5; and hardness of 50-100 mg/L CaCO3), the experimental animal use license number is: SYXK (Zhe) 2012-0171, and the breeding management met the requirements of the international AAALAC certification (certification number: 001458).\n(1) Grouping: Polypeptide group: prepared into a stock solution of 20.0 mg/mL with ultrapure water and stored at −20° C.\nPositive control group: prednisone, as white powder, with batch number C10016501, Shanghai Macklin Biochemical Technology Co., Ltd., stored at 4° C.; prepared into a 15.0 mg/mL stock solution with DMSO, and stored in aliquots at −20° C.\nNormal control group and model control group.\n(2) Experimental method: 3 dpf wild-type AB strain zebrafishes were randomly selected and placed in a 6-well plate, with 30 zebrafishes in each well (experimental group). Except for the normal control group, all other experimental groups were given TNBS in water to establish the zebrafish model of intestinal mucosal injury. After 2 days of treatment at 28° C., TNBS was removed, and polypeptide compound in water (at concentrations shown in Table 4) was given respectively, and for the positive control, prednisone was 15.0 μg/mL. A normal control group (healthy group) and a model control group (intestinal mucosal injury group) were set up at the same time. The capacity of each well (experimental group) was 3 mL. After 2 days of treatment at 28° C., 10 zebrafishes were randomly selected from each experimental group and photographed under a dissecting microscope. NIS-Elements D 3.20 advanced image processing software was used to analyze and collect data, and the intestinal lumen area of the zebrafish was analyzed. The statistical analysis results of this indicator were used to evaluate the efficacy of the samples in relieving colitis. The statistics results were expressed as mean±SE. SPSS26.0 software was used for statistical analysis, and p<0.05 indicates statistically significant difference.\nThe concentration gradient of the test substances set in this experimental system was 250 μg/mL, 500 μg/mL, and 1000 μg/mL. […] When the concentration of the test substance was further increased for intervention, the death phenomenon of zebrafishes was found in the group; therefore, in the subsequent rounds of activity evaluation, each test polypeptide compound was uniformly administered at 1000 μg/mL for intervention."}, "[3]": {"details": "D 0-D 14, compound 12: 0.8 mg/kg, mesalazine: 30.0 mg/kg, enema once a day 14 days, mean ± SD"}, "[4]": {"details": "D 14, compound 12: 0.8 mg/kg, mesalazine: 30.0 mg/kg, enema once a day 14 days, mean ± SD"}, "[5]": {"details": "experimental endpoint, compound 12: 0.8 mg/kg, mesalazine: 30.0 mg/kg, enema once a day 14 days, mean ± SD"}, "[6]": {"details": "set treatment regimen, enema once a day 14 days, vs model control group"}}, "note": "Where no end group is shown, it is not given here. [ ]: non-standard residue; d: D form. pGlu = O=C1CC[C@@H](C(=O)O)N1", "data": [{"compound": "Nc1ccc(O)c(C(=O)O)c1", "note": "[Mesalazine, mesalazine, reference compound]", "values": [{"measurement": "Body weight, Grouping day (D 0, g)", "setting": "[1]; D 0, before treatment, compound 12: 0.8 mg/kg, mesalazine: 30.0 mg/kg, enema once a day, mean ± SD", "value": "276.64 ± 7.47", "unit": "g"}, {"measurement": "DAI score AUC(0-14 d) (D 0-D 14)", "setting": "[1]; [3]", "value": "58.75 ± 2.93"}, {"measurement": "Weight change range (D 0-D 14, %)", "setting": "[1]; [3]", "value": "−4.29 ± 7.79", "unit": "%"}, {"measurement": "DAI score, Experimental day 1 (D 1, point)", "setting": "[1]; D 1, compound 12: 0.8 mg/kg, mesalazine: 30.0 mg/kg, enema once a day, mean ± SD", "value": "4.2 ± 0.4", "unit": "point"}, {"measurement": "DAI score, Experimental day 3 (D 3, point)", "setting": "[1]; D 3, compound 12: 0.8 mg/kg, mesalazine: 30.0 mg/kg, enema once a day, mean ± SD", "value": "6.2 ± 0.6", "unit": "point"}, {"measurement": "Body weight, Experimental day 5 (D 5, g)", "setting": "[1]; D 5, compound 12: 0.8 mg/kg, mesalazine: 30.0 mg/kg, enema once a day, mean ± SD", "value": "234.86 ± 8.07", "unit": "g"}, {"measurement": "Body weight, Experimental endpoint (D 14, g)", "setting": "[1]; [4]", "value": "264.43 ± 17.65", "unit": "g"}, {"measurement": "DAI score, Experimental endpoint (D 14, point)", "setting": "[1]; [4]", "value": "2.1 ± 1.6", "unit": "point"}, {"measurement": "Colon length (cm)", "setting": "[1]; [5]", "value": "14.76 ± 2.06", "unit": "cm"}, {"measurement": "Colon ulcer and inflammation score (point)", "setting": "[1]; [5]", "value": "4.30 ± 0.95", "unit": "point"}, {"measurement": "Colon weight (g)", "setting": "[1]; [5]", "value": "3.42 ± 1.15^ g"}, {"measurement": "Colonic adhesion score (point)", "setting": "[1]; [5]", "value": "2.60 ± 0.52", "unit": "point"}, {"measurement": "Effect on disease progression of ulcerative colitis / DAI scores (in words)", "setting": "[1]; [6]", "value": "no significant effect on the disease symptoms of ulcerative colitis"}, {"measurement": "Effect on weight gain inhibition / weight loss response of model animals (in words)", "setting": "[1]; [6]", "value": "did not show a significant weight improvement effect"}]}, {"compound": "PRKVAAQ [Compound 5]", "values": [{"measurement": "Intestinal lumen area (pixels, mean ± SE)", "setting": "[2]; 250 μg/mL in water", "value": "42960 ± 2661", "unit": "pixels"}, {"measurement": "Intestinal lumen area (pixels, mean ± SE)", "setting": "[2]; 500 μg/mL in water", "value": "45713 ± 4481", "unit": "pixels"}, {"measurement": "Intestinal lumen area (pixels, mean ± SE)", "setting": "[2]; 1000 μg/mL in water", "value": "33977 ± 3524", "unit": "pixels"}, {"measurement": "Activity in relieving intestinal lumen dilatation", "setting": "[2]", "value": "* (* p < 0.05)"}, {"measurement": "Intestinal lumen area compared with the model control group (in words)", "setting": "[2]; 250, 500, 1000 μg/mL, Table 4", "value": "significant statistical differences compared with the model control group"}]}, {"compound": "PVPQAK [Compound 44]", "values": [{"measurement": "Activity in relieving intestinal lumen dilatation", "setting": "[2]", "value": "−"}]}, {"compound": "PVPQAKP [Compound 60]", "values": [{"measurement": "Activity in relieving intestinal lumen dilatation", "setting": "[2]", "value": "−"}]}, {"compound": "PVPQAKPR [Compound 59]", "values": [{"measurement": "Activity in relieving intestinal lumen dilatation", "setting": "[2]", "value": "+"}]}, {"compound": "Pro-Arg-Lys-Val (PRKV; printed: Pro-Arg-Lys-Val) [Compound 18]", "values": [{"measurement": "Activity in relieving intestinal lumen dilatation", "setting": "[2]", "value": "−"}]}, {"compound": "Pro-Gln-Ala-Lys (PQAK; printed: Pro-Gln-Ala-Lys) [Compound 14]", "values": [{"measurement": "Activity in relieving intestinal lumen dilatation", "setting": "[2]", "value": "+"}]}, {"compound": "Pro-Val-Pro-Ala (PVPA; printed: Pro-Val-Pro-Ala) [Compound 42]", "values": [{"measurement": "Activity in relieving intestinal lumen dilatation", "setting": "[2]", "value": "+"}]}, {"compound": "Pro-Val-Pro-Gln-Ala (PVPQA; printed: Pro-Val-Pro-Gln-Ala) [Compound 39]", "values": [{"measurement": "Activity in relieving intestinal lumen dilatation", "setting": "[2]", "value": "+"}]}, {"compound": "Pro-Val-Pro-Glu-Ala (PVPEA; printed: Pro-Val-Pro-Glu-Ala) [Compound 40]", "values": [{"measurement": "Activity in relieving intestinal lumen dilatation", "setting": "[2]", "value": "+"}]}, {"compound": "Pro-Val-Pro-Ile-Ala (PVPIA; printed: Pro-Val-Pro-Ile-Ala) [Compound 41]", "values": [{"measurement": "Activity in relieving intestinal lumen dilatation", "setting": "[2]", "value": "+"}]}, {"compound": "RKDVYEPVPQAK [Compound 93]", "values": [{"measurement": "Activity in relieving intestinal lumen dilatation", "setting": "[2]", "value": "* (* p < 0.05)"}]}, {"compound": "RKDVYKEPVPQAK [Compound 92]", "values": [{"measurement": "Activity in relieving intestinal lumen dilatation", "setting": "[2]", "value": "** (** p < 0.01)"}]}, {"compound": "RKDVYKEPVPQAKPRKVAAQ [Compound 91]", "values": [{"measurement": "Activity in relieving intestinal lumen dilatation", "setting": "[2]", "value": "+"}]}, {"compound": "RKDVYPVPQ [Compound 94]", "values": [{"measurement": "Activity in relieving intestinal lumen dilatation", "setting": "[2]", "value": "*** (*** p < 0.001)"}]}, {"compound": "SSEDIKEEPVPQAK [Compound 98]", "values": [{"measurement": "Activity in relieving intestinal lumen dilatation", "setting": "[2]", "value": "** (** p < 0.01)"}]}, {"compound": "SSEDIKEKEPVPQAKPRKVAAQ [Compound 97]", "values": [{"measurement": "Activity in relieving intestinal lumen dilatation", "setting": "[2]", "value": "*** (*** p < 0.001)"}]}, {"compound": "SSEDIKEPVPQ [Compound 99]", "values": [{"measurement": "Activity in relieving intestinal lumen dilatation", "setting": "[2]", "value": "* (* p < 0.05)"}]}, {"compound": "VPPKEPVPQAKPRKVAAQ [Compound 100]", "values": [{"measurement": "Activity in relieving intestinal lumen dilatation", "setting": "[2]", "value": "*** (*** p < 0.001)"}]}, {"compound": "VPYKEPVPQAKPRKVAAQ [Compound 88]", "values": [{"measurement": "Activity in relieving intestinal lumen dilatation", "setting": "[2]", "value": "* (* p < 0.05)"}]}, {"compound": "Val-Ala-Ala-Gln (VAAQ; printed: Val-Ala-Ala-Gln) [Compound 8]", "values": [{"measurement": "Activity in relieving intestinal lumen dilatation", "setting": "[2]", "value": "+"}]}, {"compound": "Val-Pro-Gln-Ala (VPQA; printed: Val-Pro-Gln-Ala) [Compound 13]", "values": [{"measurement": "Activity in relieving intestinal lumen dilatation", "setting": "[2]", "value": "−"}]}, {"compound": "pyro-Glu-Leu-Lys-Glu-Pro-Val-Pro-Gln-Ala-Lys-Pro-Arg-Lys-Val-Ala-Ala-Gln ([pGlu]LKEPVPQAKPRKVAAQ; also: acetate salt) [Compound 89]", "values": [{"measurement": "Activity in relieving intestinal lumen dilatation", "setting": "[2]", "value": "** (** p < 0.01)"}]}]}
